Reference: patent publication US10508085B2, “Compounds and methods for IDO and TDO modulation, and indications therefor” (Plexxikon Inc., priority 2016, dated 2019)

Columns and labels:
[1] = target: T1, Human Indoleamine 2,3-dioxygenase (IDO) (Homo sapiens, UniProt P14902); assay: Human IDO enzymatic assay (kynurenine level); assay type: biochemical; details: 6 nM IDO, 10 μM L-Trp; geometric mean; read-out: IDO1 GMean: IC50 (μM) (Biochemical Assay)
T1 construct: His tag (N); made in house; host or cells: E. coli
In short: (§1)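 IDO conditions: 6 nM His-IDO, 10 μM L-Trp, 5 μM methylene blue, 20 min, RT. TDO conditions: 1 nM His-TDO, 350 μM L-Trp, 0.4 μM methylene blue, 70 min, RT. Both used pH 6.5 phosphate plus ascorbate/catalase, TCA stop at 50° C, kynurenine readout, nonlinear-regression IC50.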

[2] = target: T2, Human Tryptophan 2,3-dioxygenase (TDO) (Homo sapiens, UniProt P48775); assay: Human TDO enzymatic assay (kynurenine level); assay type: biochemical; details: 1 nM TDO, 350 μM L-Trp; geometric mean; read-out: TDO GMean: IC50 (μM) (Biochemical Assay)
T2 construct: His tag (N); made in house; host or cells: E. coli
In short: as §1

[3] = target: T3, human IDO (IDO1-expressing HEK293 cells) (Homo sapiens, UniProt P14902); assay: Cell based kynurenine assay, IDO1-expressing HEK293 cell clones; details: IDO1-expressing HEK293 cells, 24 hours incubation; geometric mean; read-out: HEK293 IDO1 Kynurenine GMean IC50 (μM) (Cellular Assay)
T3 construct: expressed in transfected cells
In short: (§2)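 IC50 values come from nonlinear regression of kynurenine reduction in supernatants of human IDO1- or TDO-expressing HEK293 cells incubated 24 h with serially diluted compounds, normalised to cell and media-only controls containing 0.2% DMSO.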

[4] = target: T4, human TDO (TDO-expressing HEK293 cells) (Homo sapiens, UniProt P48775); assay: Cell based kynurenine assay, TDO-expressing HEK293 cell clones; details: TDO-expressing HEK293 cells, 24 hours incubation; geometric mean; read-out: HEK293 TDO Kynurenine GMean IC50 (μM) (Cellular Assay)
T4 construct: expressed in transfected cells
In short: as §2

T1 sequence (P14902 whole entry): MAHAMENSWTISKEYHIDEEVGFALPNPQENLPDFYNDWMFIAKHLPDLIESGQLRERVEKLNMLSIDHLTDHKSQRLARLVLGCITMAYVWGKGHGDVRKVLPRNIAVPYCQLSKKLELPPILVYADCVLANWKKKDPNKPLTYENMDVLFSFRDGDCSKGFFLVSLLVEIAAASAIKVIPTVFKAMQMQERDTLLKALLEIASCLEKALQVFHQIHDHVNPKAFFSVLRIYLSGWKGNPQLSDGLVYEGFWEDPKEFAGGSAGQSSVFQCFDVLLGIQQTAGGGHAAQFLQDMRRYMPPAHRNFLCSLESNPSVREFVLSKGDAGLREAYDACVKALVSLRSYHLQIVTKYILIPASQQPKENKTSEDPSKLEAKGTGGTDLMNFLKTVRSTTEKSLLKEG
T3 sequence (P14902 whole entry): as above
T2 sequence (P48775 whole entry): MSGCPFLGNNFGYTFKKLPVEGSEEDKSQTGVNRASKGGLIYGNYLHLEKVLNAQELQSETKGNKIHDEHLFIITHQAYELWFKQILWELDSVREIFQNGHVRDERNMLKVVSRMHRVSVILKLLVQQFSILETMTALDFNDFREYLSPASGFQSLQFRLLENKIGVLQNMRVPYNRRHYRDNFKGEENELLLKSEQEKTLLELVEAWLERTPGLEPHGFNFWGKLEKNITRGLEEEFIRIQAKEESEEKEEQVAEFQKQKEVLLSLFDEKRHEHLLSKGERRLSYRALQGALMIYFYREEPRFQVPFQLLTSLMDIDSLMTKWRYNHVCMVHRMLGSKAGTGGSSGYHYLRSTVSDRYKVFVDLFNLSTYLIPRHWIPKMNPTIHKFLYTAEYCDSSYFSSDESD
T4 sequence (P48775 whole entry): as above

| IC50 [1] [µM] | IC50 [2] [µM] | IC50 [3] [µM] | IC50 [4] [µM] | SMILES |
| --- | --- | --- | --- | --- |
| 0.0001 to 10 | 0.0001 to 10 | 0.0001 to 10 | 0.0001 to 10 | COC(=O)N1CC2CCC(C1)C2CC(O)c1cc(Cl)cc2cn[nH]c12 (centres unmarked) [Compound P-0329, methyl 8-(2-(5-chloro-1H-indazol-7-yl)-2-hydroxyethyl)-3-azabicyclo [3.2.1]octane-3-carboxylate] |
| 0.0001 to 10 | 0.0001 to 10 | 0.0001 to 10 | 0.0001 to 10 | CNS(=O)(=O)N1CCC(C(F)(F)C(O)c2cc(Cl)cc3cn[nH]c23)CC1 (centres unmarked) [Compound P-0330, 4-(2-(5-chloro-1H-indazol-7-yl)-1,1-difluoro-2-hydroxyethyl)-N-methylpiperidine-1-sulfonamide] |
| 0.0001 to 10 | 0.0001 to 10 | 0.0001 to 10 | 0.0001 to 10 | CCNS(=O)(=O)N1CCC(C(F)(F)C(O)c2cc(Cl)cc3cn[nH]c23)CC1 (centres unmarked) [Compound P-0331, 4-(2-(5-chloro-1H-indazol-7-yl)-1,1-difluoro-2-hydroxyethyl)-N-ethylpiperidine-1-sulfonamide] |
| 0.0001 to 10 | 0.0001 to 10 | 0.0001 to 10 | 0.0001 to 10 | CC(C)NS(=O)(=O)N1CCC(C(F)(F)C(O)c2cc(Cl)cc3cn[nH]c23)CC1 (centres unmarked) [Compound P-0332, 4-(2-(5-chloro-1H-indazol-7-yl)-1,1-difluoro-2-hydroxyethyl)-N-isopropylpiperidine-1-sulfonamide] |
| 0.0001 to 10 | 0.0001 to 10 | 0.0001 to 10 | 0.0001 to 10 | O=C(NCC(F)(F)F)N1CCC(C(F)(F)C(O)c2cc(Cl)cc3cn[nH]c23)CC1 (centres unmarked) [Compound P-0333, 4-(2-(5-chloro-1H-indazol-7-yl)-1,1-difluoro-2-hydroxyethyl)-N-(2,2,2-trifluoroethyl) piperidine-1-carboxamide] |
| 0.0001 to 10 | 0.0001 to 10 | 0.0001 to 10 | 0.0001 to 10 | O[C@H](c1c(F)c(Cl)cc2cn[nH]c12)C12CCC(CC1)CC2 [Compound P-0334, (S)-bicyclo[2.2.2]octan-1-yl(5-chloro-6-fluoro-1H-indazol-7-yl)methanol] |
| 0.0001 to 10 | 0.0001 to 10 | 0.0001 to 10 | > 10 | O[C@@H](c1c(F)c(Cl)cc2cn[nH]c12)C12CCC(CC1)CC2 [Compound P-0335, (R)-bicyclo[2.2.2]octan-1-yl(5-chloro-6-fluoro-1H-indazol-7-yl)methanol] |
| 10 to 100 | 0.0001 to 10 | > 10 | 0.0001 to 10 | OC1(c2cc(Cl)cc3[nH]ncc23)CC2(CCC2)C1 [Compound P-0336, 2-(6-chloro-1H-indazol-4-yl)spiro[3.3] heptan-2-ol] |
| 0.0001 to 10 | 0.0001 to 10 | 0.0001 to 10 | 0.0001 to 10 | CC(C)(C)OC(=O)N1CCC(C(C)(C)[C@H](O)c2cc(Cl)cc3cn[nH]c23)CC1 [Compound P-0337, tert-butyl (S)-4-(1-(5-chloro-1H-indazol-7-yl)-1-hydroxy-2-methylpropan-2-yl)piperidine-1-carboxylate] |
| 0.0001 to 10 | 0.0001 to 10 | > 10 | 0.0001 to 10 | CC(C)(C)OC(=O)N1CCC(C(C)(C)[C@@H](O)c2cc(Cl)cc3cn[nH]c23)CC1 [Compound P-0338, tert-butyl (R)-4-(1-(5-chloro-1H-indazol-7-yl)-1-hydroxy-2-methylpropan-2-yl)piperidine-1-carboxylate] |
| 0.0001 to 10 | 0.0001 to 10 | 0.0001 to 10 | 0.0001 to 10 | CC(C)(C1CCN(C(=O)Nc2ccc(F)cc2)CC1)[C@@H](O)c1cc(Cl)cc2cn[nH]c12 [Compound P-0339, (R)-4-(1-(5-chloro-1H-indazol-7-yl)-1-hydroxy-2-methylpropan-2-yl)-N-(4-fluorophenyl) piperidine-1-carboxamide] |
| 0.0001 to 10 | 0.0001 to 10 | 0.0001 to 10 | 0.0001 to 10 | CC(C)(C(O)c1cc(Cl)cc2cn[nH]c12)[C@H]1C[C@H]2CC[C@@H](C1)N2C(N)=O (some centres unmarked) [Compound P-0340] |
| 0.0001 to 10 | 0.0001 to 10 | 0.0001 to 10 | 0.0001 to 10 | O=C(c1cccnc1)N1CCC(C(F)(F)C(O)c2c(F)c(Cl)cc3cn[nH]c23)CC1 (centres unmarked) [Compound P-0341, (4-(2-(5-chloro-6-fluoro-1H-indazol-7-yl)-1,1-difluoro-2-hydroxyethyl)piperidin-1-yl)(pyridin-3-yl)methanone] |
| 0.0001 to 10 | 0.0001 to 10 | 0.0001 to 10 | 0.0001 to 10 | COC(=O)N1CCC(C(F)(F)C(O)c2c(F)c(Cl)cc3cn[nH]c23)CC1 (centres unmarked) [Compound P-0342, methyl 4-(2-(5-chloro-6-fluoro-1H-indazol-7-yl)-1,1-difluoro-2-hydroxyethyl) piperidine-1-carboxylate] |
| 0.0001 to 10 | 0.0001 to 10 | 0.0001 to 10 | 0.0001 to 10 | O=C(C1CC1)N1CCC(C(F)(F)C(O)c2c(F)c(Cl)cc3cn[nH]c23)CC1 (centres unmarked) [Compound P-0343, (4-(2-(5-chloro-6-fluoro-1H-indazol-7-yl)-1,1-difluoro-2-hydroxyethyl)piperidin-1-yl)(cyclopropyl) methanone] |

The next lines start with the molecule.

| SMILES | IC50 [1] [µM] | IC50 [2] [µM] | IC50 [3] [µM] | IC50 [4] [µM] |
| --- | --- | --- | --- | --- |
| CN1CCC(C(C)(C)C(O)c2cc(Cl)cc3cn[nH]c23)CC1 (centres unmarked) [Compound P-0318, 1-(5-chloro-1H-indazol-7-yl)-2-methyl-2-(1-methylpiperidin-4-yl)propan-1-ol] | 0.0001 to 10 | 0.0001 to 10 | 0.0001 to 10 | 0.0001 to 10 |
| CC(C)(C1CCN(C2CC2)CC1)C(O)c1cc(Cl)cc2cn[nH]c12 (centres unmarked) [Compound P-0319, 1-(5-chloro-1H-indazol-7-yl)-2-(1-cyclopropylpiperidin-4-yl)-2-methylpropan-1-ol] | 0.0001 to 10 | 0.0001 to 10 | 0.0001 to 10 | 0.0001 to 10 |
| CC(C)(C1CCN(C2CCCC2)CC1)C(O)c1cc(Cl)cc2cn[nH]c12 (centres unmarked) [Compound P-0320, 1-(5-chloro-1H-indazol-7-yl)-2-(1-cyclopentylpiperidin-4-yl)-2-methylpropan-1-ol] | 0.0001 to 10 | 0.0001 to 10 | 0.0001 to 10 | 0.0001 to 10 |
| COC(=O)N1CCC(C(C)(C)C(O)c2cc(Cl)cc3cn[nH]c23)CC1 (centres unmarked) [Compound P-0321, methyl 4-(1-(5-chloro-1H-indazol-7-yl)-1-hydroxy-2-methylpropan-2-yl)piperidine-1-carboxylate] | 0.0001 to 10 | 0.0001 to 10 | 0.0001 to 10 | 0.0001 to 10 |
| CCOC(=O)N1CCC(C(C)(C)C(O)c2cc(Cl)cc3cn[nH]c23)CC1 (centres unmarked) [Compound P-0322, ethyl 4-(1-(5-chloro-1H-indazol-7-yl)-1-hydroxy-2-methylpropan-2-yl)piperidine-1-carboxylate] | 0.0001 to 10 | 0.0001 to 10 | 0.0001 to 10 | 0.0001 to 10 |
| CC(C)OC(=O)N1CCC(C(C)(C)C(O)c2cc(Cl)cc3cn[nH]c23)CC1 (centres unmarked) [Compound P-0323, isopropyl 4-(1-(5-chloro-1H-indazol-7-yl)-1-hydroxy-2-methylpropan-2-yl)piperidine-1-carboxylate] | 0.0001 to 10 | 0.0001 to 10 | 0.0001 to 10 | 0.0001 to 10 |
| CC(C)(C1CCN(S(N)(=O)=O)CC1)C(O)c1cc(Cl)cc2cn[nH]c12 (centres unmarked) [Compound P-0324, 4-(1-(5-chloro-1H-indazol-7-yl)-1-hydroxy-2-methylpropan-2-yl)piperidine-1-sulfonamide] | 0.0001 to 10 | 0.0001 to 10 | 0.0001 to 10 | 0.0001 to 10 |
| CC(C)(C1CCN(C(N)=O)CC1)C(O)c1cc(Cl)cc2cn[nH]c12 (centres unmarked) [Compound P-0325, 4-(1-(5-chloro-1H-indazol-7-yl)-1-hydroxy-2-methylpropan-2-yl)piperidine-1-carboxamide] | 0.0001 to 10 | 0.0001 to 10 | 0.0001 to 10 | 0.0001 to 10 |
| COC(=O)C12CCC(C(O)c3cc(Cl)cc4cn[nH]c34)(CC1)CC2 (centres unmarked) [Compound P-0326, methyl 4-((5-chloro-1H-indazol-7-yl)(hydroxy)methyl)bicyclo [2.2.2]octane-1-carboxylate] | 0.0001 to 10 | 0.0001 to 10 | 0.0001 to 10 | 0.0001 to 10 |
| O=C(O)C12CCC(C(O)c3cc(Cl)cc4cn[nH]c34)(CC1)CC2 (centres unmarked) [Compound P-0327, 4-((5-chloro-1H-indazol-7-yl)(hydroxy)methyl)bicyclo [2.2.2]octane-1-carboxylic acid] | 0.0001 to 10 | 0.0001 to 10 | 0.0001 to 10 | 0.0001 to 10 |
| OCC12CCC(C(O)c3cc(Cl)cc4cn[nH]c34)(CC1)CC2 (centres unmarked) [Compound P-0328, (5-chloro-1H-indazol-7-yl)(4-(hydroxymethyl)bicyclo[2.2.2]octan-1-yl)methanol] | 0.0001 to 10 | 0.0001 to 10 | 0.0001 to 10 | 0.0001 to 10 |
